Earlier results as cited in patent US5502037A, “Pro-cytotoxic drug conjugates for anticancer therapy” (priority 1993, dated 1996).
Like-named read-outs stand apart in the source and are kept apart here.

How the values were obtained:
[1] = NBP test, relative to NNM; taken from Brock, 1976
[2] = tested on: mouse Yoshida ascites sarcoma cells; conditions: for In vitro activities: Cytotoxicity: cu = cytostatic units, Yoshida ascites sarcoma cells, Brock, 1976
tumor cells = conditions: for activity as the result of in vivo metabolism: once activated / metabolized

## C=CC=O [Acrolein, acrolein]
[1]
  In vitro activities: Alkylating: 1.9%
[2]
  In vitro activities: Cytotoxicity: 0.4 CU/μmol
Yoshida ascites sarcoma; lethal dose, rat, Brock, 1976
  In vivo activities: LD50: 7.3 mg/kg
Yoshida ascites sarcoma; rat, in vivo
  D50 Index (LD50/CD50): ~ 3
  In vivo activities: CD50: > 2.15 mg/kg

## O=P1(N(CCCl)CCCl)NCCCO1 (stereo not drawn) [CP, cyclophosphamide]
[1]
  In vitro activities: Alkylating: 1.3%
Tumor cells
  activity as the result of in vivo metabolism: highly cancerotoxic
Tumor cells; initially, in vitro and in vivo
  biologic activity in vitro and in vivo before metabolism: only slight biologic activity
[2]; comment on Table II
  activity in the in vitro Yoshida cell cytotoxicity test (in words): virtually inactive
[2]
  In vitro activities: Cytotoxicity: < 0.03 CU/μmol
Yoshida ascites sarcoma; comment on Table II
  activity in vivo against the rat Yoshida ascites sarcoma (in words): highly active therapeutic agent
Yoshida ascites sarcoma; curative dose, Yoshida ascites sarcoma in rat, Brock, 1976
  In vivo activities: CD50: 1.25 mg/kg
Yoshida ascites sarcoma; rat, in vivo
  D50 Index (LD50/CD50): 175
  In vivo activities: LD50: 220 mg/kg

## O=P1(NCCCl)OCCCN1CCCl (stereo not drawn) [isophosphamide]
Tumor cells
  activity as the result of in vivo metabolism: highly cytotoxic in vivo to tumor cells once activated
